Source: ChEMBL document CHEMBL1201862, “PubChem BioAssay data set” (2004)
Activity calls are given as the source filed them.

How the values were obtained:
[1] = biological target: T1, E3 ubiquitin-protein ligase XIAP (Homo sapiens, UniProt P98170); test: Counter Screen using XIAP-Bir3 for Chemical Antagonists of Bir1/2 domains of IAP-family anti-apoptotic proteins. [Related pubchem assays (depositor defined):AID1018, AID1449, AID1514, AID1638, AID1749, AID1750, AID488957, AID488963]
[2] = biological target: T1, E3 ubiquitin-protein ligase XIAP; test: XIAP antagonists, biochemical, IAP family, fluorescence polarization (AID 1018); assay type: functional
[3] = biological target: T2, Tyrosine-protein phosphatase non-receptor type 7 (Homo sapiens, UniProt P35236); assay type: functional
T2 sequence (P35236 whole entry): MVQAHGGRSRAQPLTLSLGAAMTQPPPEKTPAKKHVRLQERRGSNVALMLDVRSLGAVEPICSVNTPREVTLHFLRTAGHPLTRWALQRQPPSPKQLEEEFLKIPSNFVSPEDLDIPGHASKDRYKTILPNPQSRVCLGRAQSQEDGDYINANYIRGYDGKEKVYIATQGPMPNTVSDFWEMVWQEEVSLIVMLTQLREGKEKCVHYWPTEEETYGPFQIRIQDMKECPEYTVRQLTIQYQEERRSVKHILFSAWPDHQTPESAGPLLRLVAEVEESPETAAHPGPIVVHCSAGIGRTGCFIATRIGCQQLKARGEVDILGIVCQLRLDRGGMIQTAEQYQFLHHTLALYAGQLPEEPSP

[4] = biological target: T3, Bcl-2-like protein 10 (Homo sapiens, UniProt Q9HD36); test: displacers of TR3 peptide from Bcl-B, primary screen, selectivity assay for Bfl-1 inhibitor project, biochemical, fluorescence polarization, FITC-TR3 peptide (AID 748);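 note: fluorescence polarization from a fluorescein-labelled TR3 peptide binding purified Bcl-B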
T3 sequence (Q9HD36 whole entry): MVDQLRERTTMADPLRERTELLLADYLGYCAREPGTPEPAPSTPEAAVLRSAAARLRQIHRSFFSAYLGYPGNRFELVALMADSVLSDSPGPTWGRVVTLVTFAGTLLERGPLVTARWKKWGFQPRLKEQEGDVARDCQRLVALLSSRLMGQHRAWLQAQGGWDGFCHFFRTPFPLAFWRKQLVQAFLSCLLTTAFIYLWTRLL

[5] = biological target: Glyceraldehyde-3-phosphate dehydrogenase (Homo sapiens, UniProt P04406)
Sequence of Glyceraldehyde-3-phosphate dehydrogenase (P04406 whole entry): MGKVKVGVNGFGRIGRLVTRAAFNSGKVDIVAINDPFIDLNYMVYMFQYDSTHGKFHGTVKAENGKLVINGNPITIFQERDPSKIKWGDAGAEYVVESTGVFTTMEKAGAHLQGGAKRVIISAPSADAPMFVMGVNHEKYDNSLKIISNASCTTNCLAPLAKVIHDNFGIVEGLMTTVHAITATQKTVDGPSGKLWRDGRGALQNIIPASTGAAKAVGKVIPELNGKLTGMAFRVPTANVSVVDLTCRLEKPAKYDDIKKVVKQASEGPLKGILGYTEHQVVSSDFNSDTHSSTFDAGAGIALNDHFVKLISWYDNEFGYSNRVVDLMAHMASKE

[6] = biological target: T4, SUMO-activating enzyme (Homo sapiens, UniProt Q9UBT2); test: SUMOylation inhibitor hit validation, confirmation, SUMOylation inhibitor project, biochemical, AlphaScreen (AID 2018); assay type: functional
T4 sequence (Q9UBE0 whole entry): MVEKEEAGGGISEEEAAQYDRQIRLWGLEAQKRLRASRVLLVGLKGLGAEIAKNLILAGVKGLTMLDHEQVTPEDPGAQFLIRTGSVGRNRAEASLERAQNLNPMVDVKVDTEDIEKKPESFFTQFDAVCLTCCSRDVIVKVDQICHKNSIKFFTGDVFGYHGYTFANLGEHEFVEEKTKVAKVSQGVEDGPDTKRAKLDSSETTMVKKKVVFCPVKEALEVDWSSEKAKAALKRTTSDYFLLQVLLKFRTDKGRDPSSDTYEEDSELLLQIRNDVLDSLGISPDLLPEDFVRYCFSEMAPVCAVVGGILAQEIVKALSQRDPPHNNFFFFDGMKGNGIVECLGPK
T4 sequence (Q9UBT2 whole entry): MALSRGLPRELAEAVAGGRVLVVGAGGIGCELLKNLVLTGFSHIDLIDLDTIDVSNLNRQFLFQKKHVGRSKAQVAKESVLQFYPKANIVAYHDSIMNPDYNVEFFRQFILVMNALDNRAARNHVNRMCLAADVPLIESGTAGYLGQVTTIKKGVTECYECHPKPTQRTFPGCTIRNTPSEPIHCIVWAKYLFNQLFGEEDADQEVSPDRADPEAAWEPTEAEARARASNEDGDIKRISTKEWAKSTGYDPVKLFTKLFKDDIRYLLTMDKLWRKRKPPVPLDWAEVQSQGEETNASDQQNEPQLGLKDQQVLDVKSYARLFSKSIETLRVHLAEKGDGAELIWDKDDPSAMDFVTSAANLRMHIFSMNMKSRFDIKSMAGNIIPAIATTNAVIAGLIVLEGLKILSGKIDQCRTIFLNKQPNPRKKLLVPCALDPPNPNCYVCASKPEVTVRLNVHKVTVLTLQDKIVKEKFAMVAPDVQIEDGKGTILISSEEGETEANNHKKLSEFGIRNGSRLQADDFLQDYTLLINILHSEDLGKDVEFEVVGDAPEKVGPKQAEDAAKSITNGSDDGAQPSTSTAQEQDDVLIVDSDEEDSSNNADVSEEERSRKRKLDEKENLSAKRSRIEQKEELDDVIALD

[7] = biological target: T4, SUMO-activating enzyme; test: inhibitors of in vitro SUMOylation cascade, primary screen, biochemical, HTRF, uHTS (AID 2006); assay type: protein-complex assay
[8] = biological target: T5, Induced myeloid leukemia cell differentiation protein Mcl-1 (Homo sapiens, UniProt Q07820); test: MCL1-BIM BH3 interaction inhibitors, dose response, biochemical, fluorescence polarization, BIM-BH3 peptide, 1536-well (AID 2217)
T5 sequence (Q07820 whole entry): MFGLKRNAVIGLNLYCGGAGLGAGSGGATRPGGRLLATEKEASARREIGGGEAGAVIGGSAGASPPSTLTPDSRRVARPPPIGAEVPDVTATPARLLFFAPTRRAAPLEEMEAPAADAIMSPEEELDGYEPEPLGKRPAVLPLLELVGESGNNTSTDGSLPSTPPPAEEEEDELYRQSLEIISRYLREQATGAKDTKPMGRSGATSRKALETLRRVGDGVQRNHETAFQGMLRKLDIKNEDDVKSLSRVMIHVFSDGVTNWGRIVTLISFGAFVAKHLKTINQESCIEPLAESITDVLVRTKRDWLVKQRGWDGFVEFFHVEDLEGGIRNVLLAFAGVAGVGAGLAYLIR

[9] = biological target: Estrogen receptor beta (Homo sapiens, UniProt Q92731); test: ERβ–SRC-3 coactivator interaction inhibitors, confirmation, orthogonal assay, biochemical, ELISA, streptavidin-HRP readout (AID 1060)
Sequence of Estrogen receptor beta (Q92731 whole entry): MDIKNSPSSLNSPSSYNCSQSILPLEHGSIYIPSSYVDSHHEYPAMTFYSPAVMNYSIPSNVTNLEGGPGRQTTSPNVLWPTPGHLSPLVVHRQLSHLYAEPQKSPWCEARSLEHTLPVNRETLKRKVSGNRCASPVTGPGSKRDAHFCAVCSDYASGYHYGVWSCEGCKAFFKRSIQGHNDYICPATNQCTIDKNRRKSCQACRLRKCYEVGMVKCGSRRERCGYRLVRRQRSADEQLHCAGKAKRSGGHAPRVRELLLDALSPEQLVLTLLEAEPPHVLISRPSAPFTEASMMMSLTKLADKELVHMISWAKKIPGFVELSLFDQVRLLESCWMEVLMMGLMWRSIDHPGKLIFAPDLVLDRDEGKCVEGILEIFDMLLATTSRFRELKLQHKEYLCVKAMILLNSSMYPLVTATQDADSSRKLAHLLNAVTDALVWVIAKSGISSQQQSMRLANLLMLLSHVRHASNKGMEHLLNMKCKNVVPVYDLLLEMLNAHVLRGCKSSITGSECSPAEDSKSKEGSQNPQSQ

[10] = biological target: T6, Dual specificity protein phosphatase 6 (Rattus norvegicus, UniProt Q64346)
T6 sequence (Q64346 whole entry): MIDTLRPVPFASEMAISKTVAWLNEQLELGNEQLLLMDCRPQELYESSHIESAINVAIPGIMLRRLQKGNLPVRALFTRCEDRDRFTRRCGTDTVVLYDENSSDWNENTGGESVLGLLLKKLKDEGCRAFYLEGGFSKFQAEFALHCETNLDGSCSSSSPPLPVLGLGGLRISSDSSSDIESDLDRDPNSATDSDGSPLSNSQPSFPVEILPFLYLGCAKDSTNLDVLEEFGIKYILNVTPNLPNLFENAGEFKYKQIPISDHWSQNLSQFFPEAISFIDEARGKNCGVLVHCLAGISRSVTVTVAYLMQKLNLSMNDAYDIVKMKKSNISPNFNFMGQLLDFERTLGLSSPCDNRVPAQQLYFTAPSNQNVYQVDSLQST

[11] = biological target: Bcl-2-like protein 1 (Homo sapiens, UniProt Q07817); test: BCL-XL inhibitors, dose response, selectivity assay for MCL1 inhibitor project, biochemical, fluorescence polarization, 1536-well (AID 2218)
Sequence of Bcl-2-like protein 1 (Q07817 whole entry): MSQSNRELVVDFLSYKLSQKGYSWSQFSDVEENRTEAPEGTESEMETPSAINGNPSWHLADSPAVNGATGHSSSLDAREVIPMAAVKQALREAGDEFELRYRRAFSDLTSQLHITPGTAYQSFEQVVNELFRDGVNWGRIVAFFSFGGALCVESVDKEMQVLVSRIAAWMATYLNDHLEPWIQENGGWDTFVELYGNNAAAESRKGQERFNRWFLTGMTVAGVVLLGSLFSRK

[12] = biological target: T5, Induced myeloid leukemia cell differentiation protein Mcl-1; assay type: functional
[13] = biological target: Dual specificity protein phosphatase 3 (Homo sapiens, UniProt P51452); test: SAR VHR1 Fluorescent Assay for In Vitro dose response studies. [Related pubchem assays (depositor defined):AID1654, AID1661, AID1878, AID1992, AID2004, AID2070, AID2085]; assay type: functional
Sequence of Dual specificity protein phosphatase 3 (P51452 whole entry): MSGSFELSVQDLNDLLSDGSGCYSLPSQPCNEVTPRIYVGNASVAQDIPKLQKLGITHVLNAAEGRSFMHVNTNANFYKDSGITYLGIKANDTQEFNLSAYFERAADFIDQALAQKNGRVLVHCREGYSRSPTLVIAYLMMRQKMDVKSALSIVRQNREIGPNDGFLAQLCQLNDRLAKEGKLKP

[14] = biological target: T2, Tyrosine-protein phosphatase non-receptor type 7; test: redox-dependent HePTP inhibition, mechanism study, biochemical, fluorescence (AID 2068); assay type: functional
[15] = biological target: T6, Dual specificity protein phosphatase 6; assay type: functional
[16] = biological target: Genome polyprotein (dengue virus type 2, UniProt P29990); test: Dengue-2 NS5 methyltransferase inhibitors, primary screen, biochemical, confirmation dose response (AID 588689); assay type: functional
Sequence of Genome polyprotein (P29990 2492-3391 limits assumed): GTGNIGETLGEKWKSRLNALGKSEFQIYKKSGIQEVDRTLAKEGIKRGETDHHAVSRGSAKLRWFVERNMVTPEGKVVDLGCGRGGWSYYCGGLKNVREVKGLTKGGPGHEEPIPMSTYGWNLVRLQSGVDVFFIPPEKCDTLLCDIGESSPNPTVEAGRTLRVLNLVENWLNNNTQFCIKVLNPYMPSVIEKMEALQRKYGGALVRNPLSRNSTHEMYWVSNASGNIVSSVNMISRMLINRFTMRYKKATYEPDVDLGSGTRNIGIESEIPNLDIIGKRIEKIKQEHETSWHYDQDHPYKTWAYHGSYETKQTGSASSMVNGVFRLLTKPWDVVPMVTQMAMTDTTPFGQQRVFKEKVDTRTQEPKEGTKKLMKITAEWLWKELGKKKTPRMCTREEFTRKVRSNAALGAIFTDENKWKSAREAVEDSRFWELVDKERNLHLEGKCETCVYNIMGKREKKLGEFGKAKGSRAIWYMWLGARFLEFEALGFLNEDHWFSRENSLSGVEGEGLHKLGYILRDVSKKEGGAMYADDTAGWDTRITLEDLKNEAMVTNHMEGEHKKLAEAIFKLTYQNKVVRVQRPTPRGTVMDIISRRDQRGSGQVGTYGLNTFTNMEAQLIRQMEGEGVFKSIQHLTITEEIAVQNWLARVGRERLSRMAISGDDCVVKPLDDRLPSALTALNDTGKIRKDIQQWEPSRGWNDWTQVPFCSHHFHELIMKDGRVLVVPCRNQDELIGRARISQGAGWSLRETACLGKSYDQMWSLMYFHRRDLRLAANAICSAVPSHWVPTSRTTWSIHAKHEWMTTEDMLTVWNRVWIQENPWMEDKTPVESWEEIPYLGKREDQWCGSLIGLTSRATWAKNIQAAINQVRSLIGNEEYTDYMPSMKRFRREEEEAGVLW

[17] = biological target: Potassium voltage-gated channel subfamily KQT member 2 (Rattus norvegicus, UniProt O88943, W236L); test: KCNQ2 channel potentiators, dose response, mechanism study for KCNQ2 potentiator project, cell-based, automated electrophysiology (AID 2603); assay type: functional
Sequence of Potassium voltage-gated channel subfamily KQT member 2 (O88943 whole entry W236L, the tested form may be a part): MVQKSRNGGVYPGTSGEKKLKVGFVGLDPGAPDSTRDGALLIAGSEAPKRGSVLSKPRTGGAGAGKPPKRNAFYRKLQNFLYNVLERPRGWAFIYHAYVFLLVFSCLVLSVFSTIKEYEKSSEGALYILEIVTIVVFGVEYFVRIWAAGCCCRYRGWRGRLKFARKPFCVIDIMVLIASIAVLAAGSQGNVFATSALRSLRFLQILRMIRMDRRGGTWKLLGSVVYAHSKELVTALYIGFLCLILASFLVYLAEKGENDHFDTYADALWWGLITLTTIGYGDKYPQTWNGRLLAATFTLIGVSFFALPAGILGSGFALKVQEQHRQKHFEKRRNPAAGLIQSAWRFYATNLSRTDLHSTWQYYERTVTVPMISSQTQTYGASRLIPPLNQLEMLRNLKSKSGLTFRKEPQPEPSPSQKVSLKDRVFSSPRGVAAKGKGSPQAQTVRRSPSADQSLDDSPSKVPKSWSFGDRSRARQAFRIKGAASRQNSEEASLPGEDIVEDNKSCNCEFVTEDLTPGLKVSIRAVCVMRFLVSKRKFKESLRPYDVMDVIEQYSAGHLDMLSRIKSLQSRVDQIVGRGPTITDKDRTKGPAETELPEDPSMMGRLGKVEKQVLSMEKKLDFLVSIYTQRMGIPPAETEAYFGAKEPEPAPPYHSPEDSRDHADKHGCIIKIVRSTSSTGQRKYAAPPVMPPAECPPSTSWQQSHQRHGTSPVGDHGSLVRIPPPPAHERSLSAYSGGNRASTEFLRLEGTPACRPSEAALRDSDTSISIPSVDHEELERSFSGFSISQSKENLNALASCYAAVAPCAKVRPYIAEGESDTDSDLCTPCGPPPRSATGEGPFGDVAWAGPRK

[18] = biological target: T7, Estrogen receptor (Homo sapiens, UniProt P03372); test: potentiators of ERα–SRC-1 coactivator binding, dose response, biochemical, TR-FRET, ERα LBD (AID 737)
T7 sequence (P03372 whole entry): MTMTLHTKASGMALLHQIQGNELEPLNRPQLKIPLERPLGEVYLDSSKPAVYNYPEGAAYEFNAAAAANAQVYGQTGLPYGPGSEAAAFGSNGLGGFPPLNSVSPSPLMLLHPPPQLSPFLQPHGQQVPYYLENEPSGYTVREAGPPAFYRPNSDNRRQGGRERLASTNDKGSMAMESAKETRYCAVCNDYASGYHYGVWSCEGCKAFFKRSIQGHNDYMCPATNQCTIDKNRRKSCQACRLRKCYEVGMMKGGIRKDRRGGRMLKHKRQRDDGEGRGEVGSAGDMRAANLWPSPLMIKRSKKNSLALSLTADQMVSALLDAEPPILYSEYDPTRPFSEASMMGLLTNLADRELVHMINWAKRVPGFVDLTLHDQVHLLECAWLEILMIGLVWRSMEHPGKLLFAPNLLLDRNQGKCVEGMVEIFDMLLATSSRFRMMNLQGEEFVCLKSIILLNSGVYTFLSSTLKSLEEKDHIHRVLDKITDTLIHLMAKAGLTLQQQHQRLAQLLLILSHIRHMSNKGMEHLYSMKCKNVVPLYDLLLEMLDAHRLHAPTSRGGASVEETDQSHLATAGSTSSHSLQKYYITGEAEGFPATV

[19] = biological target: T8, Replicative DNA helicase DnaB (Mycobacterium tuberculosis, UniProt P9WMR3); test: DnaB intein splicing inhibitors, dose response, biochemical, cell-free fluorescence (AID 449749); assay type: functional
T8 sequence (P9WMR3 whole entry): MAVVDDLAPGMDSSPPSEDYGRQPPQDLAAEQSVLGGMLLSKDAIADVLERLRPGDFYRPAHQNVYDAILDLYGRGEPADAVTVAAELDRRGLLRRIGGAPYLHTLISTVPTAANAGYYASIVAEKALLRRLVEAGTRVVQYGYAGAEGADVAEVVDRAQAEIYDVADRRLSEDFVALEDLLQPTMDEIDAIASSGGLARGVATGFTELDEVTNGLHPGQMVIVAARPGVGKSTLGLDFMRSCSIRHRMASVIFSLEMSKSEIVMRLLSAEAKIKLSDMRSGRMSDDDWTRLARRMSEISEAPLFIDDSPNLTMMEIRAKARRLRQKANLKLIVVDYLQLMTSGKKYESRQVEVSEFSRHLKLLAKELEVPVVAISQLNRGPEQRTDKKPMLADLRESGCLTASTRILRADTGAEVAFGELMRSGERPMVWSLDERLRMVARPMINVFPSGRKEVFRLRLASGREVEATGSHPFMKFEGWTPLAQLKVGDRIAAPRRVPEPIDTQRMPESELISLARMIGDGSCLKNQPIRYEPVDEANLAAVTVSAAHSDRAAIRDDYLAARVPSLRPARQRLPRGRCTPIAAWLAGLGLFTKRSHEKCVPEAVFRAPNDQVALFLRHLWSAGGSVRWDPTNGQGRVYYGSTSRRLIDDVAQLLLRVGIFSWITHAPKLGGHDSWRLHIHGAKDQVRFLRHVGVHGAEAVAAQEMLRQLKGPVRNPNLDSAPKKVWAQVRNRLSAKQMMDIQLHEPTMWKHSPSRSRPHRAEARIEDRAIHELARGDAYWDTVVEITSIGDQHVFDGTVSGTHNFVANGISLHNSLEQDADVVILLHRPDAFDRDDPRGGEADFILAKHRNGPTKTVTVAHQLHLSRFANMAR

[20] = biological target: T9, Protein RecA (Mycobacterium tuberculosis, UniProt P9WHJ3); test: Fluorescence Cell-Free Homogeneous Dose Retest to Identify Inhibitors of RecA-Intein Splicing Activity. [Related pubchem assays (depositor defined):AID2097, AID2223, AID489010, AID492950]; assay type: functional
T9 sequence (P9WHJ3 whole entry): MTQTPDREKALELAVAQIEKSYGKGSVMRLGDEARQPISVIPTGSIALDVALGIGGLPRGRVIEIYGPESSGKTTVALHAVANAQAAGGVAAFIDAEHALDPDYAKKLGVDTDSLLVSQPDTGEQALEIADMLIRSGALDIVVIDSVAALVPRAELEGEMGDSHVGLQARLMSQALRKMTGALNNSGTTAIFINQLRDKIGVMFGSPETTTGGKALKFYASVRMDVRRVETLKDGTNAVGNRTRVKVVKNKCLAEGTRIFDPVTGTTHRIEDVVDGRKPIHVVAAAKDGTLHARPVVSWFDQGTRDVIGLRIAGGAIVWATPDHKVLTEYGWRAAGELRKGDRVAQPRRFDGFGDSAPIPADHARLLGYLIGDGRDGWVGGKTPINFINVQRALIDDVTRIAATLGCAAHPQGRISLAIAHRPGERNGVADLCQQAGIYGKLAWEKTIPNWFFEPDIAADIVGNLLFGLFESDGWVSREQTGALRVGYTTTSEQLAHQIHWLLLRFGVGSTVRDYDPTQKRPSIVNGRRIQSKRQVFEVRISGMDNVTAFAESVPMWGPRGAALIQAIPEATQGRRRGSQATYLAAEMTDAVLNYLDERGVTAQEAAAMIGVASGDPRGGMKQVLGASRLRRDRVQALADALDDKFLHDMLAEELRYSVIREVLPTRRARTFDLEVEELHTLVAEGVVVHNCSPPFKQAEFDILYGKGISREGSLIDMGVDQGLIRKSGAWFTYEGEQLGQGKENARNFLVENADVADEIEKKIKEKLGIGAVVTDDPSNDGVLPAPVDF

[21] = biological target: T10, Neuropeptide Y receptor type 2 (Homo sapiens, UniProt P49146); test: NPY-Y2 antagonist potency, selectivity check, dose response, counter-screen for NPY-Y1 antagonist project, cell-based (AID 1278); assay type: functional
T10 sequence (P49146 whole entry): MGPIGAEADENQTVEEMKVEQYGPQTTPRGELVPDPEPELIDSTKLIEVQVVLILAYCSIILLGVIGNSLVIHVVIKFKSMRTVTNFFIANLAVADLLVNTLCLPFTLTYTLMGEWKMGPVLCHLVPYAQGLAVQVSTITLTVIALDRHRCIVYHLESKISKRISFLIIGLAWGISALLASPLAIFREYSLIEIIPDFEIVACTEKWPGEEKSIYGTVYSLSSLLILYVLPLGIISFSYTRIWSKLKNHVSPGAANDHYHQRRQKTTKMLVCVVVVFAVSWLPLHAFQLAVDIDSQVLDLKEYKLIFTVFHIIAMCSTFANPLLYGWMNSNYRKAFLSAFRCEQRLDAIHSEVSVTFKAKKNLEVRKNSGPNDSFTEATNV

[22] = biological target: T11, Neuropeptide Y receptor type 1 (Homo sapiens, UniProt P25929); test: NPY-Y1 receptor antagonist potency, dose response, cell-based (AID 1277); assay type: functional
T11 sequence (P25929 whole entry): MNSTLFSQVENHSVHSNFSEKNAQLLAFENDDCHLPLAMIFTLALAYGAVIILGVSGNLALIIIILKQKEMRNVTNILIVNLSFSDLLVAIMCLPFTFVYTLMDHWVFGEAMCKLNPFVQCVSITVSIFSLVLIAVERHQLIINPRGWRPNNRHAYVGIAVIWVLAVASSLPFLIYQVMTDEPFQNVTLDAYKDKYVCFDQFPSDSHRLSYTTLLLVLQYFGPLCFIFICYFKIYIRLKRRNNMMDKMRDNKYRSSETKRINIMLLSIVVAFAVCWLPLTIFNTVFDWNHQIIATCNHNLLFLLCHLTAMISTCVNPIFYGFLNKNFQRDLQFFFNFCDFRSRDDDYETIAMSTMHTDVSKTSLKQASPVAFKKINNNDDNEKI

T1 sequence (P98170 whole entry): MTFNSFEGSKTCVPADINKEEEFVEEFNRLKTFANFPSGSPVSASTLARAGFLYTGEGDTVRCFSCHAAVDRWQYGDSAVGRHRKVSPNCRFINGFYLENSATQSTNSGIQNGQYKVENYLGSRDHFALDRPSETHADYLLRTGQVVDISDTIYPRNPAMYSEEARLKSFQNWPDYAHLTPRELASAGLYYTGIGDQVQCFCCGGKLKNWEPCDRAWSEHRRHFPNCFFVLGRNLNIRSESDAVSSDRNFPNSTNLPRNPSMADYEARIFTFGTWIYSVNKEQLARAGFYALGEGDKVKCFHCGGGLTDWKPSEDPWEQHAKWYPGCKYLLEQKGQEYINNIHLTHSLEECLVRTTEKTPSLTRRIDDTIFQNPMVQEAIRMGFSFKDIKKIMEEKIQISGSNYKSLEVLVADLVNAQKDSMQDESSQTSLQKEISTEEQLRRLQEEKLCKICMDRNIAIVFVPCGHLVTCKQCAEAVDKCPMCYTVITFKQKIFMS

## C=C(C)CC1N(c2cccc(OC)c2)C(=O)C2C(C(=O)O)C3C=CC21O3 (configuration not stated)
[1]
  IC50: > 100 µM (inactive)
[2]
  IC50: > 100 µM (not active)

## CSc1nnc(-c2ccco2)c(-c2ccco2)n1
[3]
  IC50: 41.5 µM (active)
[4]
  IC50: 19.4 µM (active)
[5]
  IC50: 99.1 µM (active)
[6]
  IC50: 2.91 µM (active)
[7]
  IC50: 15.2 µM (active)
[8]
  IC50: 13.2 µM (not active)
[9]
  IC50: > 50 µM (not active)
[10]
  IC50: 80.4 µM (active)
[11]
  IC50: > 109 µM (not active)
[12]
  IC50: 8.02 µM (active)
[13]
  IC50: 29.5 µM (active)
[14]
  IC50: 1.04 µM (active)
[15]
  IC50: 99.7 µM (active)
[16]
  IC50: 86.8 µM (active)

## CC(C)(C)c1ccc(OCCC(=O)NCC(c2cccs2)N2CCOCC2)cc1 (configuration not stated)
[17]
  EC50: 1.97 µM (active)

## CCc1n[nH]c2c1C(c1cccc(OC(=O)N3CCOCC3)c1)C(C#N)=C(N)O2 (configuration not stated)
[18]
  EC50: 6.39 µM (not active)
[19]
  AC50: 20.3 µM (active)
[20]
  EC50: 9.88 µM (active)

## Brc1ccc(-c2csc(/N=C/N3CCCC3)n2)cc1
[21]
  IC50: > 35 µM (not active)
[22]
  IC50: > 35 µM (not active)
